# Reference: patent publication US10618901B2 (GlaxoSmithKline Intellectual Property Development Limited, priority 2014, dated 2020)
# Read-outs that look alike come from different tables or passages of the source.
# Target: T1, LRRK2 Ser935 phosphorylation in SH-SY5Y cells over-expressing recombinant full length LRRK2 (Homo sapiens, UniProt Q5S007)
# T1 construct: A BacMam virus expressing full length recombinant LRRK2 was purchased from Invitrogen; host or cells: SH-SY5Y (BacMam transduction)
# Experiment: Recombinant cellular LRRK2 AlphaScreen assay
# Assay type: cell-based
# How it was run: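 SH-SY5Y cells transduced with BacMam full-length LRRK2 (MOI 50, 24 h) were treated with compound, top final 10 uM, for 60 min at 37° C. Lysates were assayed by AlphaScreen for pSer935 and total LRRK2. Dose-response fitted to a sigmoidal model.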
# [1] = LRRK2 Ser935 phosphorylation, 60 minutes, read-out: recombinant cellcular LRRK2 alphaScreen assay (pIC50) (converted)
# [2] = read-out: pIC50 in the recombinant cellular LRRK2 alphaScreen assay (converted)
# [3] = LRRK2 Ser935 phosphorylation, 60 minutes
# T1 sequence (Q5S007 whole entry): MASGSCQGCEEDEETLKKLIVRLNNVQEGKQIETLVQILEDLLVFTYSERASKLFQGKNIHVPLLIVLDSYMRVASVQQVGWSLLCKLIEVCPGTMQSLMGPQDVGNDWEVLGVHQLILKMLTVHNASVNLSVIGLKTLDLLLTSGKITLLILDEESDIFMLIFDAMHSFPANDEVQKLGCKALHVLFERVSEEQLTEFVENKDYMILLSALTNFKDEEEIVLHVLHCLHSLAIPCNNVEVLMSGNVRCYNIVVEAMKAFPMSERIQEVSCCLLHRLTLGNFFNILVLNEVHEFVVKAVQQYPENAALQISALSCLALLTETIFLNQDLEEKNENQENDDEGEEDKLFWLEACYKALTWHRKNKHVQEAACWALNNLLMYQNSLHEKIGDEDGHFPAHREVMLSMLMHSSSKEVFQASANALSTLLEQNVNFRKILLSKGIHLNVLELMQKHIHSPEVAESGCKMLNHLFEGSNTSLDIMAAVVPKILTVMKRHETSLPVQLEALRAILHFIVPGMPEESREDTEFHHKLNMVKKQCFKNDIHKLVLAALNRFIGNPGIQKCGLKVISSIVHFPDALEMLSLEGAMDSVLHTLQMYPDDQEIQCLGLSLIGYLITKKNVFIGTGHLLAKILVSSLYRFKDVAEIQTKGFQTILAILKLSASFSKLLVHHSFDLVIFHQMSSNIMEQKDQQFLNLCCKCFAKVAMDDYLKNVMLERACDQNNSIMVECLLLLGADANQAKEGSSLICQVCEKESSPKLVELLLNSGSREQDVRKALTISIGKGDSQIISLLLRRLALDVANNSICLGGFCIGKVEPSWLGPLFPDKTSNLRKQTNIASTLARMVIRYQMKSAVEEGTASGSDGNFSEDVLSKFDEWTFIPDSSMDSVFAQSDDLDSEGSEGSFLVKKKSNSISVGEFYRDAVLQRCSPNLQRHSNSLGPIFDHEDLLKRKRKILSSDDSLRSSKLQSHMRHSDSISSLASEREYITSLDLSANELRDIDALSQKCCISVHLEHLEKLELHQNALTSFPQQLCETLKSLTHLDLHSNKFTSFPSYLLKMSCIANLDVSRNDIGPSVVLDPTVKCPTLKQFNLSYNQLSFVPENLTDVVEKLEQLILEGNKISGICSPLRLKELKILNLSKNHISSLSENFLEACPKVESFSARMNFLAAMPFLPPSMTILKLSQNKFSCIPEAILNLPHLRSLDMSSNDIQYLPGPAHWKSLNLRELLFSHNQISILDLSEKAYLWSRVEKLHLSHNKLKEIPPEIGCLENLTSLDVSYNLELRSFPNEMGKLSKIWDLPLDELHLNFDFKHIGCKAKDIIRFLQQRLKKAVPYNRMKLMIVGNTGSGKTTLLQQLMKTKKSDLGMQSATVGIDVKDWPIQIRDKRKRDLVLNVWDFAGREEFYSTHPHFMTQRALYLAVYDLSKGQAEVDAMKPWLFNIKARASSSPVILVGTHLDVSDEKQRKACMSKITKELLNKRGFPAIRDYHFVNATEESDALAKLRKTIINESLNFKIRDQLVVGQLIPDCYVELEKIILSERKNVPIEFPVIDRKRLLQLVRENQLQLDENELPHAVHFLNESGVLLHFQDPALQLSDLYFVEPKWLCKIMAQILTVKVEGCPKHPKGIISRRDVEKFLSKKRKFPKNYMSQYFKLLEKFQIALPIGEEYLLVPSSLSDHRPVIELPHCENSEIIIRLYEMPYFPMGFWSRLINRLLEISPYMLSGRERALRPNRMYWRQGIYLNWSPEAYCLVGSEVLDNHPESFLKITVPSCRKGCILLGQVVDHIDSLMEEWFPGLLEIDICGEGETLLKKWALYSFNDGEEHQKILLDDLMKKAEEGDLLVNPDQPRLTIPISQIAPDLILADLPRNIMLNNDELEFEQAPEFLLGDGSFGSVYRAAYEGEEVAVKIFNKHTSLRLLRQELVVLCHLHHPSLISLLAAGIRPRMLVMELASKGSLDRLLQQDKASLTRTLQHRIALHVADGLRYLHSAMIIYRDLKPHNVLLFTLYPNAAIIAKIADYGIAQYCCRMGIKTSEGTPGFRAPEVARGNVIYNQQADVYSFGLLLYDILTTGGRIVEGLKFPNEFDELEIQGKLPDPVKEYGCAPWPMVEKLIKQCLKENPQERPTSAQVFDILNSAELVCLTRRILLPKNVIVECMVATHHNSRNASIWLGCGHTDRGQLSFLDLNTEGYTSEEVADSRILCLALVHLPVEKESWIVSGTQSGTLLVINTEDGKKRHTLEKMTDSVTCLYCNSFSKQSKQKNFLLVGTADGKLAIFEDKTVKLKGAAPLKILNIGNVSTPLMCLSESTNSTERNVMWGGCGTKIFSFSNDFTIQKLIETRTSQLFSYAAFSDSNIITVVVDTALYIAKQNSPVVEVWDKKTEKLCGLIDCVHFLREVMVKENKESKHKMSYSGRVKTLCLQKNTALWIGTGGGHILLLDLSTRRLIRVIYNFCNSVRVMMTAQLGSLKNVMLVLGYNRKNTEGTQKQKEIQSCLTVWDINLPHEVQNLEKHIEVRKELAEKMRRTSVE
compound,measurement,setting,value
"CCOc1nc(Nc2cnn([C@@H]3CCN(C4COC4)C[C@H]3F)c2Cl)nc2[nH]ccc12 (single isomer, unassigned) [Example E105]",IC50,[1],25.1 nM
same,IC50,[2],≤ 100 nM
"CCOc1nc(Nc2cnn(C3CN(C4COC4)CCO3)c2Cl)nc2[nH]ccc12 (single isomer, unassigned) [Example E141, N-(5-chloro-1-(4-(oxetan-3-yl)morpholin-2-yl)-1H-pyrazol-4-yl)-4-ethoxy-7H-pyrrolo[2,3-d]pyrimidin-2-amine]",IC50,[1],15.8 nM
same,IC50,[2],≤ 100 nM
"CCOc1nc(Nc2cnn(CC(C)(C)O)c2C)nc2[nH]ccc12 [Example E3, 1-(4-((4-ethoxy-7H-pyrrolo-[2,3-d]pyrimidin-2-yl)amino)-5-methyl-1H-pyrazol-1-yl)-2-methylpropan-2-ol]",IC50,[1],79.4 nM
same,IC50,[2],≤ 100 nM
"CCOc1nc(Nc2cnn(C3CC(N4CCOCC4)C3)c2C)nc2[nH]ccc12 (stereo not shown) [Example E86, 4-ethoxy-N-(5-methyl-1-(3-morpholinocyclobutyl)-1H-pyrazol-4-yl)-7H-pyrrolo[2,3-d] pyrimidin-2-amine]",IC50,[1],39.8 nM
same,IC50,[2],≤ 100 nM
"CCOc1nc(Nc2cnn(C3CCOCC3C)c2C)nc2[nH]ccc12 (single isomer, unassigned) [Example E113, (cis)-4-ethoxy-N-(5-methyl-1-(3-methyltetrahydro-2H-pyran-4-yl)-1H-pyrazol-4-yl)-7H-pyrrolo[2,3-d]pyrimidin-2-amine]",IC50,[1],25.1 nM
same,IC50,[2],≤ 100 nM
"CCOc1nc(Nc2cnn(C3CCN(C4COC4)CC3(F)F)c2Cl)nc2[nH]ccc12 (single isomer, unassigned) [Example E134, N-(5-chloro-1-(3,3-difluoro-1-(oxetan-3-yl)piperidin-4-yl)-1H-pyrazol-4-yl)-4-ethoxy-7H-pyrrolo[2,3-d]pyrimidin-2-amine]",IC50,[1],5.01 nM
"CCOc1nc(Nc2cnn(C3CCN(C)C3)c2C)nc2[nH]ccc12 (single isomer, unassigned) [Example E14, 4-ethoxy-N-(5-methyl-1-(1-methylpyrrolidin-3-yl)-1H-pyrazol-4-yl)-7H-pyrrolo-[2,3-d]-pyrimidin-2-amine]",IC50,[1],63.1 nM
same,IC50,[2],≤ 100 nM
"trans-2-(5-chloro-4-((4-ethoxy-7H-pyrrolo-[2,3-d]-pyrimidin-2-yl)amino)-1H-pyrazol-1-yl)cyclopentanol [Example E38]",recombinant cellcular LRRK2 alphaScreen assay (pIC50),[3],7.6
"trans-2-(5-chloro-4-((4-ethoxy-7H-pyrrolo-[2,3-d]-pyrimidin-2-yl)amino)-1H-pyrazol-1-yl)-cyclopentanol [Example E37]",recombinant cellcular LRRK2 alphaScreen assay (pIC50),[3],7.6
"CCOc1nc(Nc2cnn([C@H]3CCN(C4COC4)C[C@@H]3F)c2Cl)nc2[nH]ccc12 (single isomer, unassigned) [Example E104]",IC50,[1],31.6 nM
same,IC50,[2],≤ 100 nM
"CCOc1nc(Nc2cnn(C3CN(C4COC4)CCC3(F)F)c2Cl)nc2[nH]ccc12 (single isomer, unassigned) [Example E124, N-(5-chloro-1-(4,4-difluoro-1-(oxetan-3-yl)piperidin-3-yl)-1H-pyrazol-4-yl)-4-ethoxy-7H-pyrrolo[2,3-d]pyrimidin-2-amine]",IC50,[1],0.794 nM
"CCOc1nc(Nc2cnn(CCN3CCO[C@H](C(F)F)C3)c2C)nc2[nH]ccc12 [Example E100, (S)—N-(1-(2-(2-(difluoromethyl)morpholino)ethyl)-5-methyl-1H-pyrazol-4-yl)-4-ethoxy-7H-pyrrolo[2,3-d]pyrimidin-2-amine]",IC50,[1],31.6 nM
same,IC50,[2],≤ 100 nM
"cis-3-(4-((4-ethoxy-7H-pyrrolo[2,3-d]pyrimidin-2-yl)amino)-5-methyl-1H-pyrazol-1-yl)cyclopentanol [Example E56]",recombinant cellcular LRRK2 alphaScreen assay (pIC50),[3],7.8
"trans-2-(4-((4-ethoxy-7H-pyrrolo-[2,3-d]pyrimidin-2-yl)amino)-5-methyl-1H-pyrazol-1-yl)-cyclopentanol [Example E40]",recombinant cellcular LRRK2 alphaScreen assay (pIC50),[3],7.8
"CCOc1nc(Nc2cnn(C3CC(O)C3)c2C)nc2[nH]ccc12 (stereo not shown) [Example E52, 3-(4-((4-ethoxy-7H-pyrrolo-[2,3-d]-pyrimidin-2-yl)-amino)-5-methyl-1H-pyrazol-1-yl)cyclo-butanol]",IC50,[1],12.6 nM
same,IC50,[2],≤ 100 nM
"CCOc1nc(Nc2cnn(C3CCOCC3)c2C2CC2)nc2[nH]ccc12 [Example E44, N-(5-cyclopropyl-1-(tetrahydro-2H-pyran-4-yl)-1H-pyrazol-4-yl)-4-ethoxy-7H-pyrrolo-[2,3-d]pyrimidin-2-amine]",IC50,[1],63.1 nM
same,IC50,[2],≤ 100 nM
"CCOc1nc(Nc2cnn(C3CCCC3(C)O)c2C)nc2[nH]ccc12 (racemic) [Example E70, Trans-2-(4-((4-ethoxy-7H-pyrrolo-[2,3-d]pyrimidin-2-yl)amino)-5-methyl-1H-pyrazol-1-yl)-1-methylcyclopentanol]",IC50,[2],≤ 100 nM
"CCOc1nc(Nc2cnn(C3CCN(C4COC4)C3)c2C)nc2[nH]ccc12 (single isomer, unassigned) [Example E67, 4-ethoxy-N-(5-methyl-1-(1-(oxetan-3-yl)-pyrrolidin-3-yl)-1H-pyrazol-4-yl)-7H-pyrrolo-[2,3-d]pyrimidin-2-amine]",IC50,[2],≤ 100 nM
"CCOc1nc(Nc2cnn(C3CN(C)CCC3(F)F)c2C)nc2[nH]ccc12 (single isomer, unassigned) [Example E121, N-(1-(4,4-difluoro-1-methylpiperidin-3-yl)-5-methyl-1H-pyrazol-4-yl)-4-ethoxy-7H-pyrrolo[2,3-d]pyrimidin-2-amine]",IC50,[1],0.631 nM
same,IC50,[2],≤ 100 nM
"CCOc1nc(Nc2cnn(CCOC)c2Cl)nc2[nH]ccc12 [Example E21, N-(5-chloro-1-(2-methoxyethyl)-1H-pyrazol-4-yl)-4-ethoxy-7H-pyrrolo-[2,3-d]-pyrimidin-2-amine]",IC50,[2],≤ 100 nM
"CCOc1nc(Nc2cnn(CCN3CCOCC3)c2C)nc2[nH]ccc12 [Example E45, 4-ethoxy-N-(5-methyl-1-(2-morpholinoethyl)-1H-pyrazol-4-yl)-7H-pyrrolo-[2,3-d]pyrimidin-2-amine]",IC50,[1],20 nM
same,IC50,[2],≤ 100 nM
"trans-2-(4-((4-ethoxy-7H-pyrrolo-[2,3-d]pyrimidin-2-yl)amino)-5-methyl-1H-pyrazol-1-yl)-cyclopentanol [Example E41]",recombinant cellcular LRRK2 alphaScreen assay (pIC50),[3],7.8
